In patent US8785478B2, “Viral polymerase inhibitors” (Biota Scientific Management Pty Ltd, priority 2012, dated 2014):
≈ marks a conversion by molar mass, not a printed value. Where two headings read alike, the source gives them in different places.

Experiments:
[1] = system: genotype 1b (Con 1) subgenomic replicon cell line; experiment: HCV replicon assay, genotype 1b (Renilla luciferase); format: cell-based; conditions: Hepatitis C virus, genotype 1b replicon
Experimental: (§1) A genotype 1b (Con 1) subgenomic replicon cell line based on Blight et al., Science 2000 290: 1972-1974, modified to express a Renilla luciferase reporter gene was used to assess antiviral activity of test compounds. Cell cultures were maintained in a sub-confluent state in DMEM with glutamine, 10% heat-inactivated foetal bovine serum (FBS) and G418 (Geneticin®).
(§2) For assay, cells were seeded at a density of 7000 cells/well into 96 well tissue culture trays in culture media lacking G418. Compounds were tested in a three fold dilution series, for example starting from 50 uM. After 72 hours incubation at 37° C. and 5% CO2, Renilla luciferase activity was quantified via the Promega Renilla Luciferase or Renilla-Glo™ Luciferase Assay Systems (Promega corporation. The same method was employed for replicon assays using subgenomic genotype 1a (H77) and 2a (JFH-1) replicon cell lines with a seeding cell density of 5000 cells/well for the 2a cell lines.
(§3) The compound concentration that reduced luciferase activity by 50% (EC50) was calculated using non-linear regression.

1b (BK) NS5BΔ21 = target: T1, 1b (BK) NS5BΔ21 (Hepatitis C virus genotype 1b, UniProt P26663); experiment: HCV Polymerase Inhibition Assay; format: biochemical
T1 construct: 100 nM, 1b (BK) NS5BΔ21
Experimental: HCV polymerase reactions were carried out using a modified method of Howe et al., Antimicrobial Agents and Chemotherapy 2004 48(12): 4813-4821. Reactions contained a final concentration of, 0.5% DMSO, 100 nM, 1b (BK) NS5BΔ21, 20 mM Tris-HCl pH 7.5, 5 mM MgCl2, 5 mM MnCl2, 3 mM DTT, 0.05% BSA, 0.2 U/μL RNasin, 10 μg/mL Poly(rC) template, GTP (at Km) and 0.05 μCi/μL ^33P-GTP in a total reaction volume of 50 μL. Compounds were tested in a three fold dilution series, for example starting from 50 μM. Reactions were initiated with the addition of GTP and terminated after 90 min with 50 μL ice cold 0.2 M EDTA. Terminated reactions were transferred to DEAE 96-well filter plates, unincorporated nucleotides washed from the filters and 50 μL scintillation fluid added prior to reading on a scintillation counter. The compound concentration that reduced ^33P-GTP incorporation by 50% (IC50) was calculated using non-linear regression.

[2] = Aqueous solubility (laser nephelometry); format: physicochemical; conditions: for solubility at 30 min: aqueous assay buffer with 1% DMSO, kinetic from dmso stock, 30 minute incubation at 25° C.
Experimental: Test compounds prepared in DMSO were screened in duplicate over a range of concentrations (1.6-100 ug/mL) in different aqueous media (for example a pH6.5 buffers which are relevant to the stomach and upper regions of the small intestine and therefore important when predicting the amount of drug likely to be in solution following oral administration). Test compounds were serially diluted in 100% DMSO ranging from 10-0.16 mg/mL. These titrated DMSO stocks were then further diluted 1:100 with assay buffer and added to test plates (UV Star Griener 384 well plates), maintaining the DMSO concentration at 1%.

[3] = system: subgenomic genotype 2a (JFH-1) replicon cell line; experiment: HCV replicon assay, genotype 2a (Renilla luciferase); format: cell-based; conditions: Hepatitis C virus; genotype 2a replicon; read-out: G2a (EC50 μM)
Experimental: as §1, §2, §3

[4] = system: subgenomic genotype 1a (H77) replicon cell line; experiment: HCV replicon assay, genotype 1a (Renilla luciferase); format: cell-based; conditions: Hepatitis C virus; genotype 1a replicon; read-out: G1a (EC50 μM)
Experimental: as §1, §2, §3

[5] = Cytotoxicity analysis (MTT); format: cell-based; conditions: genotype 1b replicon cells, three days, read-out: G1b (CC50 μM)
Experimental: Cytotoxicity of compounds against genotype 1b replicon cells was determined via metabolism of the vital dye 3-(4,5-dimethylthiaxol-2-yl)-2,5-diphenyltetrazolium bromide (MTT, for example see Watanabe et al., Journal of Virological Methods 1994 48:257-265). Plates were prepared as described for the HCV Replicon assay and cytotoxicity of the test article was evaluated after three days. MTT was added to assay plates followed by three hour incubation at 37° C. Wells were aspirated to dryness and the formazan dye dissolved by the addition of isopropanol. Absorbance values were read at 540/690 nm). The compound concentration that reduced cell viability by 50% (CC50) was calculated using non-linear regression.

[6] = 72 hours, read-out: genotype 1b EC50 (μM) range
[7] = 1b polymerase IC50 (μM) range, genotype 1b NS5B, 33P-GTP incorporation
[8] = aqueous buffer, pH 6.5, 1% DMSO, read-out: Solubility pH 6.5
[9] = simulated gastric fluid, pH 2, 1% DMSO, read-out: Solubility pH 2
[10] = NS5B G1b (IC50 μM), genotype 1b polymerase

T1 sequence (P26663 2420-2989, stated change not applied): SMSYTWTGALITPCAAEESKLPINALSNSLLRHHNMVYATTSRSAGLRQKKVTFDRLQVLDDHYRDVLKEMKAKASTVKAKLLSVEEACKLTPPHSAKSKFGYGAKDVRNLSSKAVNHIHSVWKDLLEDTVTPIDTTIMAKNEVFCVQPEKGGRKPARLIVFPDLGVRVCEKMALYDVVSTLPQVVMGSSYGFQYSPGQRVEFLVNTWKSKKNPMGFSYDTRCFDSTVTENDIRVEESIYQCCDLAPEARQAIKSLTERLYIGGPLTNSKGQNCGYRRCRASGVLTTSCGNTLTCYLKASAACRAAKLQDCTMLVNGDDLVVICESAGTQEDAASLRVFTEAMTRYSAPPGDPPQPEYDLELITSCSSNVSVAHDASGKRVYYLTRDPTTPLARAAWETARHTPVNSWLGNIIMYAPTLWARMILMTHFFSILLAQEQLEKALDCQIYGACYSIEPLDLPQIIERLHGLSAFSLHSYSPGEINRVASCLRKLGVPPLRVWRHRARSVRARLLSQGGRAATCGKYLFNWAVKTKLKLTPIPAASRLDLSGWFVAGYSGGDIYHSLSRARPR

CNC(=O)c1c2cc(C3CC3)c(N(CCO)S(C)(=O)=O)cc2nn1-c1ccc(C)cn1 [Compound 2, 5-cyclopropyl-6-[(2-hydroxyethyl)(methylsulfonyl)amino]-N-methyl-2-(5-methylpyridin-2-yl)-2H-indazole-3-carboxamide]
EC50 [1, 6]: 0.1 to 0.49 µM | IC50 (1b (BK) NS5BΔ21; [7]): 1 to 10 µM | solubility at 30 min [2, 8]: > 100 µg/mL | solubility at 30 min [2, 9]: 50 to 100 µg/mL (≈ 113 to 225 µM)

CNC(=O)c1c2cc(C3CC3)c(N(CC(F)F)S(C)(=O)=O)cc2nn1-c1ccc(C)cn1 [Compound 3, 5-cyclopropyl-6-[(2,2-difluoroethyl)(methylsulfonyl)amino]-N-methyl-2-(5-methylpyridin-2-yl)-2H-indazole-3-carboxamide]
EC50 [1, 6]: < 0.1 µM | IC50 (1b (BK) NS5BΔ21; [7]): 0.5 to 0.99 µM | solubility at 30 min [2, 8]: 50 to 100 µg/mL (≈ 108 to 216 µM) | solubility at 30 min [2, 9]: 50 to 100 µg/mL (≈ 108 to 216 µM)

CNC(=O)c1c2cc(C3CC3)c(N(CCC3COC3)S(C)(=O)=O)cc2nn1-c1ccc(C)cn1 [Compound 4, 5-cyclopropyl-N-methyl-2-(5-methylpyridin-2-yl)-6-{(methylsulfonyl)[2-(oxetan-3-yl)ethyl]amino}-2H-indazole-3-carboxamide]
EC50 [3]: 0.293 µM | EC50 [4]: 0.035 µM | EC50 [1, 6]: < 0.1 µM | EC50 ([1]; read-out: G1b (EC50 μM)): 0.054 µM | IC50 (1b (BK) NS5BΔ21; [7]): 0.1 to 0.49 µM | IC50 (1b (BK) NS5BΔ21; [10]): 0.388 µM | CC50 at 3 days [5]: > 50 µM

CCN(c1cc2nn(-c3ccc(C)cn3)c(C(=O)NC)c2cc1C1CC1)S(C)(=O)=O [Compound 5, 5-cyclopropyl-6-[ethyl(methylsulfonyl)amino]-N-methyl-2-(5-methylpyridin-2-yl)-2H-indazole-3-carboxamide]
EC50 [3]: 0.147 µM | EC50 [4]: 0.068 µM | EC50 [1, 6]: < 0.1 µM | EC50 ([1]; read-out: G1b (EC50 μM)): 0.03 µM | IC50 (1b (BK) NS5BΔ21; [7]): 0.1 to 0.49 µM | IC50 (1b (BK) NS5BΔ21; [10]): 0.283 µM | times more potent than Compound A (1b (BK) NS5BΔ21; in each of the HCV assays tested (polymerase, replicon)): at least 10 times | CC50 at 3 days [5]: > 50 µM | solubility at 30 min [2, 8]: > 100 µg/mL | solubility at 30 min [2, 9]: > 100 µg/mL | solubility in words ([2]; at both pH2 and pH 6.5): good solubility

CNC(=O)c1c2cc(C3CC3)c(N(C)S(C)(=O)=O)cc2nn1-c1ccc(C)cn1 [Compound 6, 5-cyclopropyl-N-methyl-6-[methyl(methylsulfonyl)amino]-2-(5-methylpyridin-2-yl)-2H-indazole-3-carboxamide]
EC50 [3]: 0.024 µM | EC50 [4]: 0.044 µM | EC50 [1, 6]: < 0.1 µM | EC50 ([1]; read-out: G1b (EC50 μM)): 0.004 µM | IC50 (1b (BK) NS5BΔ21; [7]): 0.1 to 0.49 µM | IC50 (1b (BK) NS5BΔ21; [10]): 0.31 µM | CC50 at 3 days [5]: > 50 µM

CNC(=O)c1c2cc(C3CC3)c(N(CCF)S(C)(=O)=O)cc2nn1-c1ccc(C)cn1 [Compound 7, 5-cyclopropyl-6-[(2-fluoroethyl)(methylsulfonyl)amino]-N-methyl-2-(5-methylpyridin-2-yl)-2H-indazole-3-carboxamide]
EC50 [1, 6]: < 0.1 µM | IC50 (1b (BK) NS5BΔ21; [7]): 0.5 to 0.99 µM

CCN(c1cc2nn(-c3ccc(Cl)cn3)c(C(=O)NC)c2cc1C1CC1)S(C)(=O)=O [Compound 8, 2-(5-chloropyridin-2-yl)-5-cyclopropyl-6-[ethyl(methylsulfonyl)amino]-N-methyl-2H-indazole-3-carboxamide]
EC50 [3]: 0.04 µM | EC50 [4]: 0.016 µM | EC50 [1, 6]: < 0.1 µM | EC50 ([1]; read-out: G1b (EC50 μM)): 0.009 µM | IC50 (1b (BK) NS5BΔ21; [7]): < 0.1 µM | IC50 (1b (BK) NS5BΔ21; [10]): 0.091 µM | CC50 at 3 days [5]: > 50 µM

CNC(=O)c1c2cc(C3CC3)c(N(C)S(C)(=O)=O)cc2nn1-c1ccc(Cl)cn1 [Compound 9, 2-(5-chloropyridin-2-yl)-5-cyclopropyl-N-methyl-6-[methyl(methylsulfonyl)amino]-2H-indazole-3-carboxamide]
EC50 [3]: 0.055 µM | EC50 [4]: 0.031 µM | EC50 [1, 6]: < 0.1 µM | EC50 ([1]; read-out: G1b (EC50 μM)): 0.008 µM | IC50 (1b (BK) NS5BΔ21; [7]): < 0.1 µM | IC50 (1b (BK) NS5BΔ21; [10]): 0.054 µM | CC50 at 3 days [5]: > 50 µM

CNC(=O)c1c2cc(C3CC3)c(N(CCC3COC3C)S(C)(=O)=O)cc2nn1-c1ccc(C)cn1 (centres unmarked) [Compound 10, 5-cyclopropyl-N-methyl-6-{[2-(2-methyloxetan-3-yl)ethyl](methylsulfonyl)amino}-2-(5-methylpyridin-2-yl)-2H-indazole-3-carboxamide]
EC50 [1, 6]: < 0.1 µM | IC50 (1b (BK) NS5BΔ21; [7]): 0.5 to 0.99 µM

CNC(=O)c1c2cc(C3CC3)c(N(CCC3(C)COC3)S(C)(=O)=O)cc2nn1-c1ccc(C)cn1 [Compound 11, 5-cyclopropyl-N-methyl-6-{[2-(3-methyloxetan-3-yl)ethyl](methylsulfonyl)amino}-2-(5-methylpyridin-2-yl)-2H-indazole-3-carboxamide]
EC50 [3]: 0.183 µM | EC50 [4]: 0.013 µM | EC50 [1, 6]: < 0.1 µM | EC50 ([1]; read-out: G1b (EC50 μM)): 0.028 µM | IC50 (1b (BK) NS5BΔ21; [7]): 0.1 to 0.49 µM | IC50 (1b (BK) NS5BΔ21; [10]): 0.4 µM | CC50 at 3 days [5]: > 50 µM | solubility at 30 min [2, 8]: 50 to 100 µg/mL (≈ 100 to 201 µM) | solubility at 30 min [2, 9]: 50 to 100 µg/mL (≈ 100 to 201 µM)

CNC(=O)c1c2cc(C3CC3)c(N(C)S(C)(=O)=O)cc2nn1-c1ncc(C)s1 [Compound 13, 5-cyclopropyl-N-methyl-6-[methyl(methylsulfonyl)amino]-2-(5-methylthiazol-2-yl)indazole-3-carboxamide]
EC50 [1, 6]: 0.1 to 0.49 µM

CNC(=O)c1c2cc(C3CC3)c(N(C)S(C)(=O)=O)cc2nn1-c1ccccn1 [Compound 14, 5-cyclopropyl-N-methyl-6-[methyl(methylsulfonyl)amino]-2-(2-pyridyl)indazole-3-carboxamide]
EC50 [1, 6]: 0.1 to 0.49 µM

CNC(=O)c1c2cc(C3CC3)c(N(C)S(C)(=O)=O)cc2nn1-c1cc(C)c(Cl)cn1 [Compound 15, 2-(5-chloro-4-methyl-2-pyridyl)-5-cyclopropyl-N-methyl-6-[methyl(methylsulfonyl)amino]indazole-3-carboxamide]
EC50 [1, 6]: 0.1 to 0.49 µM

CNC(=O)c1c2cc(C3CC3)c(N(CCC3CN(C(=O)OC(C)(C)C)C3)S(C)(=O)=O)cc2nn1-c1ccc(C)cn1 [Compound 16, tert-butyl 3-[2-[[5-cyclopropyl-3-(methylcarbamoyl)-2-(5-methyl-2-pyridyl)indazol-6-yl]-methylsulfonyl-amino]ethyl]azetidine-1-carboxylate]
EC50 [1, 6]: < 0.1 µM | IC50 (1b (BK) NS5BΔ21; [7]): 1 to 10 µM

CNC(=O)c1c2cc(C3CC3)c(N(CCC3CN(C(C)=O)C3)S(C)(=O)=O)cc2nn1-c1ccc(C)cn1 [Compound 17, 6-[2-(1-acetylazetidin-3-yl)ethyl-methylsulfonyl-amino]-5-cyclopropyl-N-methyl-2-(5-methyl-2-pyridyl)indazole-3-carboxamide]
EC50 [1, 6]: 0.1 to 0.49 µM | IC50 (1b (BK) NS5BΔ21; [7]): 0.5 to 0.99 µM | solubility at 30 min [2, 8]: > 100 µg/mL | solubility at 30 min [2, 9]: 50 to 100 µg/mL (≈ 95.3 to 191 µM)

CNC(=O)c1c2cc(C3CC3)c(N(CCC3(OC)COC3)S(C)(=O)=O)cc2nn1-c1ccc(C)cn1 [Compound 18, 5-cyclopropyl-6-[2-(3-methoxyoxetan-3-yl)ethyl-methylsulfonyl-amino]-N-methyl-2-(5-methyl-2-pyridyl)indazole-3-carboxamide]
EC50 [3]: 0.305 µM | EC50 [4]: 0.031 µM | EC50 [1, 6]: < 0.1 µM | EC50 ([1]; read-out: G1b (EC50 μM)): 0.056 µM | IC50 (1b (BK) NS5BΔ21; [7]): 0.1 to 0.49 µM | IC50 (1b (BK) NS5BΔ21; [10]): 0.188 µM | CC50 at 3 days [5]: > 50 µM

CNC(=O)c1c2cc(C3CC3)c(N(CCC3COC3)S(C)(=O)=O)cc2nn1-c1ccc(Cl)cn1 [Compound 19, 2-(5-chloro-2-pyridyl)-5-cyclopropyl-N-methyl-6-[methylsulfonyl-[2-(oxetan-3-yl)ethyl]amino]indazole-3-carboxamide]
EC50 [3]: 0.019 µM | EC50 [4]: 0.011 µM | EC50 [1, 6]: < 0.1 µM | EC50 ([1]; read-out: G1b (EC50 μM)): 0.021 µM | IC50 (1b (BK) NS5BΔ21; [7]): 0.1 to 0.49 µM | IC50 (1b (BK) NS5BΔ21; [10]): 0.131 µM | CC50 at 3 days [5]: > 50 µM
